This passage reports Activity and MTD results from ChEMBL document CHEMBL4118049, “HPLC-Based Activity Profiling for GABAA Receptor Modulators in Extracts: Validation of an Approach Utilizing a Larval Zebrafish Locomotor Assay” (J Nat Prod, 2017).

The species named for series [1] is Danio rerio. Kind of series: Anticonvulsant activity in 7-days post fertilized zebra fish larvae assessed as reduction in pentylenetetrazol-induced locomotor activity by measuring total distance traveled by larvae at 1.5 to 6 uM pretreated for 3 hrs followed by pentylenetetrazol addition measured at 5 mins interval 30 mins. Type of series: functional, organism-based.

For series [2], the species on record is Danio rerio. Put plainly: Toxicity in 7-days post fertilized zebra fish larvae after 1.5 to 24 hrs by microscopic analysis. Type of series: organism-based. As to conditions: zebrafish, in vivo.
Series [3] is filed under the species Danio rerio. Kind of series: Anticonvulsant activity in 7-days post fertilized zebra fish larvae assessed as reduction in pentylenetetrazol-induced locomotor activity by measuring total distance traveled by larvae pretreated for 3 hrs followed by pentylenetetrazol addition measured at 5 mins interval 30 mins. In kind it is functional, organism-based.
The species named for series [4] is Danio rerio. Kind of series: Anticonvulsant activity in 7-days post fertilized zebra fish larvae assessed as reduction in pentylenetetrazol-induced locomotor activity by measuring total distance traveled by larvae at 0.25 to 2 uM pretreated for 3 hrs followed by pentylenetetrazol addition measured at 5 mins interval 30 mins. Type of series: functional, organism-based.

For series [5], the species on record is Danio rerio. Put plainly: Anticonvulsant activity in 7-days post fertilized zebra fish larvae assessed as reduction in pentylenetetrazol-induced locomotor activity by measuring total distance traveled by larvae at 1.25 to 10 uM pretreated for 3 hrs followed by pentylenetetrazol addition measured at 5 mins interval 30 mins. Type of series: functional, organism-based.

Activity calls are given as the source filed them. The rule behind the calls is not given here.

On to `CC(C)c1ccc2c(c1)CC[C@H]1[C@](C)(C(=O)O)CCC[C@]21C` [DEHYDROABIETIC ACID], for which the result in the series listed under Danio rerio [1] was Active. Further, the MTD in the series listed under Danio rerio [2] turned out to be 6 µM.

In the series listed under Danio rerio [2], `CN1C(=O)CN=C(c2ccccc2)c2cc(Cl)ccc21` [DIAZEPAM] gave an MTD of 20 µM. Further, in the series filed under Danio rerio [3], the Activity result was “Dose-dependent effect”.

Take `C=CCc1ccc(O)c(-c2cc(CC=C)ccc2O)c1` [MAGNOLOL]: in the series listed under Danio rerio [2], the MTD was determined as 4 µM. Moreover, in the series listed under Danio rerio [3], the Activity entry was “Dose-dependent effect”.

Turning to `O=C(/C=C/C=C/c1ccc2c(c1)OCO2)N1CCCCC1` [PIPERINE], the MTD in the series listed under Danio rerio [2] stood at 12 µM. Moreover, in the series filed under Danio rerio [3], the Activity result is “Dose-dependent effect”.

Consider `C=C[C@]1(C)C=C2CC[C@@H]3[C@](C)(CCC[C@@]3(C)C(=O)O)[C@H]2CC1` [SANDARACOPIMARIC ACID], for which the outcome in the series listed under Danio rerio [4] was Active. This compound returned an MTD in the series filed under Danio rerio [2] of 2 µM.

Consider `CC(C)=CC[C@]12Oc3cc(O)c([C@H]4C=C(C)C[C@H](c5ccc(O)cc5O)[C@H]4C(=O)c4ccc(O)cc4O)c(O)c3C(=O)[C@@]1(O)Oc1cc(O)ccc12` [SANGGENON C], for which the outcome in the series listed under Danio rerio [4] was inactive. Moreover, the MTD in the series filed under Danio rerio [2] came to 2 µM.

Take `C=C(C)[C@H](CC=C(C)C)Cc1c(O)cc(O)c2c1O[C@H](c1ccc(O)cc1O)CC2=O` [SOPHORAFLAVANONE G]: the MTD in the series listed under Danio rerio [2] came out at 10 µM. For the same compound, the outcome in the series filed under Danio rerio [5] was Active.

`CC1=C2[C@H](/C=C(\C)C(=O)O)CC[C@@H](C)[C@H]2CC1` [VALERENIC ACID] had an MTD in the series filed under Danio rerio [2] of 10 µM. Moreover, the Activity entry in the series filed under Danio rerio [3] was “Dose-dependent effect”.
